According to ChEMBL document CHEMBL4052687, “Synthesis of MeON-neoglycosides of digoxigenin with 6-deoxy- and 2,6-dideoxy-d-glucose derivatives and their anticancer activity” (2017):
Active and inactive are the calls of the source. No cut-off for these calls is given here.

Assays:
[1] = tested on: NCI-H460; assay: Cytotoxicity in human NCI-H460 cells assessed as cell viability at 50 nM incubated for 48 hrs by MTT assay; type: functional; conditions: NCI-H460, 48 h, read-out: Activity
[2] = molecular target: Nuclear receptor subfamily 4immunitygroup A member 1 (Homo sapiens) (UniProt P22736); assay: Induction of Nur77 protein translocation from nucleus to cytoplasm in human NCI-H460 cells at 20 nM incubated for 3 hrs by immunofluorescence microscopy; type: cell-based
Sequence of Nuclear receptor subfamily 4immunitygroup A member 1 (Homo sapiens) (P22736 whole entry): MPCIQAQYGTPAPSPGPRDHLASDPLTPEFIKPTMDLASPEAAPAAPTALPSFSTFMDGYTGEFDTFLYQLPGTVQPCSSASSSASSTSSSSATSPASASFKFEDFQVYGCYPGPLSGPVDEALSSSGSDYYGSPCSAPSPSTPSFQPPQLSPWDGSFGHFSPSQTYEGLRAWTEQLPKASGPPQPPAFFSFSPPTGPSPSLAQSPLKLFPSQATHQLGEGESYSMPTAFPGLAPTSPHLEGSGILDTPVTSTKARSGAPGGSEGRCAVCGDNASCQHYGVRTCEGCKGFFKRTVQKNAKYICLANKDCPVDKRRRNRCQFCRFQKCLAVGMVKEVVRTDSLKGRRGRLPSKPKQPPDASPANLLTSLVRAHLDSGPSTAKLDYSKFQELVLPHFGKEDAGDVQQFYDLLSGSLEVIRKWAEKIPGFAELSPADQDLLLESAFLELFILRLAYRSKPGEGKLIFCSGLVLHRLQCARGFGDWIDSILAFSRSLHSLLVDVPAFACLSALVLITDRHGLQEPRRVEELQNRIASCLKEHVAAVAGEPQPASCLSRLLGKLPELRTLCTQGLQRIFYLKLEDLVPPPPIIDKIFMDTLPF

[3] = tested on: NCI-H460; assay: Induction of Nur77 protein expression in human NCI-H460 cells at 20 nM incubated for 3 hrs by Western blot method relative to digoxin; type: functional, cell-based

Q: `CO[C@@H]1[C@@H](O)[C@H](N(OC)[C@@H]2CC[C@@]3(C)[C@H](CC[C@@H]4[C@@H]3C[C@@H](O)[C@]3(C)[C@@H](C5=CC(=O)OC5)CC[C@]43O)C2)O[C@H](C)[C@H]1OC` was tested. Which viability at 0.05 µM [1] did it give?
A: Its viability at 0.05 µM is over 90%.

Q: What about the Activity [2] of the same molecule?
A: Its Activity is “Active”.

Q: For `CO[C@@H]1[C@@H](O)[C@H](N(OC)[C@@H]2CC[C@@]3(C)[C@H](CC[C@@H]4[C@@H]3C[C@@H](O)[C@]3(C)[C@@H](C5=CC(=O)OC5)CC[C@]43O)C2)O[C@H](C)[C@H]1O`, which viability at 0.05 µM [1] is on record?
A: Its viability at 0.05 µM is over 90%.

Q: Which viability at 0.05 µM [1] does the source give for `CO[C@H]1[C@H](O)[C@@H](O)[C@H](N(OC)[C@@H]2CC[C@@]3(C)[C@H](CC[C@@H]4[C@@H]3C[C@@H](O)[C@]3(C)[C@@H](C5=CC(=O)OC5)CC[C@]43O)C2)O[C@@H]1C` here?
A: The viability at 0.05 µM was over 90%.

Q: With `CO[C@@H]1[C@@H](O)[C@H](N(OC)[C@H]2CC[C@@]3(C)[C@H](CC[C@@H]4[C@@H]3C[C@@H](O)[C@]3(C)[C@@H](C5=CC(=O)OC5)CC[C@]43O)C2)O[C@H](C)[C@H]1O` as the molecule, how does the viability at 0.05 µM [1] read?
A: The viability at 0.05 µM was over 90%.

Q: What about the Activity [2] of the same molecule?
A: Its Activity is “Active”.

Q: What does the source list for `CO[C@@H]1[C@@H](OC)[C@H](O)[C@@H](C)O[C@H]1N(OC)[C@@H]1CC[C@@]2(C)[C@H](CC[C@@H]3[C@@H]2C[C@@H](O)[C@]2(C)[C@@H](C4=CC(=O)OC4)CC[C@]32O)C1`?
A: viability at 0.05 µM [1]: > 90%; Activity [2]: Active

Q: With `CO[C@@H]1[C@@H](C)O[C@@H](N(OC)[C@H]2CC[C@@]3(C)[C@H](CC[C@@H]4[C@@H]3C[C@@H](O)[C@]3(C)[C@@H](C5=CC(=O)OC5)CC[C@]43O)C2)C[C@H]1OC` as the molecule, how does the viability at 0.05 µM [1] read?
A: The viability at 0.05 µM was over 90%.

Q: How did the viability at 0.05 µM [1] turn out when `CO[C@@H]1[C@@H](O)[C@H](O)[C@@H](C)O[C@H]1N(OC)[C@H]1CC[C@@]2(C)[C@H](CC[C@@H]3[C@@H]2C[C@@H](O)[C@]2(C)[C@@H](C4=CC(=O)OC4)CC[C@]32O)C1` was run?
A: Its viability at 0.05 µM is over 90%.

Q: With `CO[C@@H]1C[C@H](N(OC)[C@@H]2CC[C@@]3(C)[C@H](CC[C@@H]4[C@@H]3C[C@@H](O)[C@]3(C)[C@@H](C5=CC(=O)OC5)CC[C@]43O)C2)O[C@H](C)[C@H]1O` as the molecule, how does the viability at 0.05 µM [1] read?
A: Its viability at 0.05 µM is over 90%.

Q: What about the Activity [2] of the same molecule?
A: Its Activity is “Active”.

Q: `CON([C@H]1CC[C@@]2(C)[C@H](CC[C@@H]3[C@@H]2C[C@@H](O)[C@]2(C)[C@@H](C4=CC(=O)OC4)CC[C@]32O)C1)[C@H]1O[C@@H](CO)[C@H](O)[C@@H](O)[C@@H]1O` was tested. Which viability at 0.05 µM [1] did it give?
A: Its viability at 0.05 µM is over 90%.

Q: What about the Activity [3] of the same molecule?
A: The Activity was “Active”.

Q: What about the Activity [2] of the same molecule?
A: The Activity was “Active”.

Q: With `CO[C@@H]1[C@@H](O)[C@H](N(OC)[C@H]2CC[C@@]3(C)[C@H](CC[C@@H]4[C@@H]3C[C@@H](O)[C@]3(C)[C@@H](C5=CC(=O)OC5)CC[C@]43O)C2)O[C@H](C)[C@H]1OC` as the molecule, how does the viability at 0.05 µM [1] read?
A: Its viability at 0.05 µM is over 90%.

Q: With `CON([C@H]1CC[C@@]2(C)[C@H](CC[C@@H]3[C@@H]2C[C@@H](O)[C@]2(C)[C@@H](C4=CC(=O)OC4)CC[C@]32O)C1)[C@@H]1O[C@H](CO)[C@@H](O)[C@H](O)[C@H]1O` as the molecule, how does the viability at 0.05 µM [1] read?
A: Its viability at 0.05 µM is over 90%.

Q: Which viability at 0.05 µM [1] does the source give for `CO[C@@H]1C[C@H](N(OC)[C@H]2CC[C@@]3(C)[C@H](CC[C@@H]4[C@@H]3C[C@@H](O)[C@]3(C)[C@@H](C5=CC(=O)OC5)CC[C@]43O)C2)O[C@H](C)[C@H]1O` here?
A: Its viability at 0.05 µM is over 90%.

Q: Which Activity [3] does the source give for `CON[C@H]1CC[C@@]2(C)[C@H](CC[C@@H]3[C@@H]2C[C@@H](O)[C@]2(C)[C@@H](C4=CC(=O)OC4)CC[C@]32O)C1` here?
A: Its Activity is “inactive”.

Q: How did the viability at 0.05 µM [1] turn out when `CO[C@@H]1[C@@H](O)[C@H](O)[C@@H](C)O[C@H]1N(OC)[C@@H]1CC[C@@]2(C)[C@H](CC[C@@H]3[C@@H]2C[C@@H](O)[C@]2(C)[C@@H](C4=CC(=O)OC4)CC[C@]32O)C1` was run?
A: Its viability at 0.05 µM is over 90%.

Q: And the Activity [3]?
A: Its Activity is “Active”.

Q: `CO[C@@H]1[C@@H](O)[C@H](OC)[C@@H](C)O[C@H]1N(OC)[C@H]1CC[C@@]2(C)[C@H](CC[C@@H]3[C@@H]2C[C@@H](O)[C@]2(C)[C@@H](C4=CC(=O)OC4)CC[C@]32O)C1` was tested. Which viability at 0.05 µM [1] did it give?
A: Its viability at 0.05 µM is over 90%.

Q: What about the Activity [3] of the same molecule?
A: The Activity was “Active”.

Q: And the Activity [2]?
A: Its Activity is “Active”.

Q: `CO[C@@H]1[C@@H](OC)[C@H](O)[C@@H](C)O[C@H]1N(OC)[C@H]1CC[C@@]2(C)[C@H](CC[C@@H]3[C@@H]2C[C@@H](O)[C@]2(C)[C@@H](C4=CC(=O)OC4)CC[C@]32O)C1` was tested. Which viability at 0.05 µM [1] did it give?
A: The viability at 0.05 µM was over 90%.

Q: Which Activity [3] does the source give for `CON[C@@H]1CC[C@@]2(C)[C@H](CC[C@@H]3[C@@H]2C[C@@H](O)[C@]2(C)[C@@H](C4=CC(=O)OC4)CC[C@]32O)C1` here?
A: The Activity was “inactive”.

Q: What does the source list for `CON([C@@H]1CC[C@@]2(C)[C@H](CC[C@@H]3[C@@H]2C[C@@H](O)[C@]2(C)[C@@H](C4=CC(=O)OC4)CC[C@]32O)C1)[C@@H]1O[C@H](C)[C@@H](O)[C@H](O)[C@H]1O`?
A: viability at 0.05 µM [1]: > 90%; Activity [3]: Active

Q: With `CO[C@H]1[C@H](O)[C@@H](O)[C@H](N(OC)[C@H]2CC[C@@]3(C)[C@H](CC[C@@H]4[C@@H]3C[C@@H](O)[C@]3(C)[C@@H](C5=CC(=O)OC5)CC[C@]43O)C2)O[C@@H]1C` as the molecule, how does the viability at 0.05 µM [1] read?
A: Its viability at 0.05 µM is over 90%.

Q: `CO[C@@H]1[C@@H](O)[C@H](OC)[C@@H](C)O[C@H]1N(OC)[C@@H]1CC[C@@]2(C)[C@H](CC[C@@H]3[C@@H]2C[C@@H](O)[C@]2(C)[C@@H](C4=CC(=O)OC4)CC[C@]32O)C1` was tested. Which viability at 0.05 µM [1] did it give?
A: The viability at 0.05 µM was over 90%.

Q: And the Activity [2]?
A: The Activity was “Active”.

Q: `CO[C@@H]1[C@@H](C)O[C@@H](N(OC)[C@@H]2CC[C@@]3(C)[C@H](CC[C@@H]4[C@@H]3C[C@@H](O)[C@]3(C)[C@@H](C5=CC(=O)OC5)CC[C@]43O)C2)C[C@H]1OC` was tested. Which viability at 0.05 µM [1] did it give?
A: The viability at 0.05 µM was over 90%.

Q: For `CON([C@H]1CC[C@@]2(C)[C@H](CC[C@@H]3[C@@H]2C[C@@H](O)[C@]2(C)[C@@H](C4=CC(=O)OC4)CC[C@]32O)C1)[C@@H]1O[C@H](C)[C@@H](O)[C@H](O)[C@H]1O`, which viability at 0.05 µM [1] is on record?
A: Its viability at 0.05 µM is over 90%.

Q: `CON([C@@H]1CC[C@@]2(C)[C@H](CC[C@@H]3[C@@H]2C[C@@H](O)[C@]2(C)[C@@H](C4=CC(=O)OC4)CC[C@]32O)C1)[C@@H]1O[C@H](CO)[C@@H](O)[C@H](O)[C@H]1O` was tested. Which viability at 0.05 µM [1] did it give?
A: The viability at 0.05 µM was over 90%.

Q: What about the Activity [2] of the same molecule?
A: The Activity was “Active”.

Q: For `CON([C@@H]1CC[C@@]2(C)[C@H](CC[C@@H]3[C@@H]2C[C@@H](O)[C@]2(C)[C@@H](C4=CC(=O)OC4)CC[C@]32O)C1)[C@H]1O[C@@H](CO)[C@H](O)[C@@H](O)[C@@H]1O`, which viability at 0.05 µM [1] is on record?
A: The viability at 0.05 µM was over 90%.

Q: What about the Activity [3] of the same molecule?
A: Its Activity is “Active”.
